Data from ChEMBL document CHEMBL4811258, “Potent Antimalarials with Development Potential Identified by Structure-Guided Computational Optimization of a Pyrrole-Based Dihydroorotate Dehydrogenase Inhibitor Series” (J Med Chem, 2021).

Columns and labels:
[1] = Inhibition of Plasmodium falciparum DHODH expressed in Escherichia coli BL21-DE3 using L-dihydroorotate as substrate by steady-state DCIP method
[2] = target: Dihydroorotate dehydrogenase (quinone), mitochondrial (Homo sapiens, UniProt Q02127); assay type: ADME
Plasmodium falciparum [3] = assay: microbe, parasite or virus in culture; details: 3D7, 72 h
[4] = Inhibition of Plasmodium vivax DHODH expressed in Escherichia coli BL21-DE3 using L-dihydroorotate as substrate by steady-state DCIP method
Plasmodium falciparum [5] = system: Plasmodium falciparum

Chain of Dihydroorotate dehydrogenase (quinone), mitochondrial (Q02127 whole entry): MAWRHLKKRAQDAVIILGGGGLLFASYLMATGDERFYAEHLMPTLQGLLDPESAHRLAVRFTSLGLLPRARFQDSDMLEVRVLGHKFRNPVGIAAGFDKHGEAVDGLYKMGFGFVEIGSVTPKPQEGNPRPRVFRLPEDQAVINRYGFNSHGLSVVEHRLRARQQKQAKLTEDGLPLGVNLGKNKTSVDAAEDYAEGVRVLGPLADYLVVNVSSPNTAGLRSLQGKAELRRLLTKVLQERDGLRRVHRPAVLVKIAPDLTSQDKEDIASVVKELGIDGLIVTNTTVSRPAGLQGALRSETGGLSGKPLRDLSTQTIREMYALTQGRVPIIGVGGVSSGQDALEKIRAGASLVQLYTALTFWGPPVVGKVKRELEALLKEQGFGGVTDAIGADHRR

SMILES | IC50 [1] | IC50 [2] | EC50 (Plasmodium falciparum [3]) | IC50 [4] | EC50 (Plasmodium falciparum [5])
Cc1c(Cc2ccc(C(F)(F)F)cc2F)c[nH]c1C(=O)NC1CC1 | 44 nM | > 100000 nM | – | – | –
CCOC(=O)c1[nH]cc(Cc2nc3ccccc3o2)c1C | 900 nM | > 100000 nM | 1600 nM | – | –
Cc1c(C2(c3ccc(C(F)(F)F)nc3)CC2)c[nH]c1C(=O)N1CC(F)(F)C1 | 21 nM | > 100000 nM | 2 nM | 17 nM | –
Cc1c(Cc2ccc(C(F)(F)F)nc2F)c[nH]c1C(=O)NC1CC1 | 11 nM | > 100000 nM | 3.1 nM | 5.4 nM | –
N#Cc1c(Cc2ccc(C(F)(F)F)nc2)c[nH]c1C(=O)NC1CC1 | 410 nM | > 100000 nM | 250 nM | 430 nM | –
Cc1c(C2(c3ccc(C(F)(F)F)nc3)CC2)c[nH]c1C(=O)NC1CC1 | 19 nM | > 100000 nM | > 10000 nM | 11 nM | –
Cc1c(-c2c[nH]c3nc(C(F)(F)F)ccc23)c[nH]c1C(=O)NC1CC1 | 120 nM | > 100000 nM | 13 nM | 10 nM | –
CCOC(=O)c1[nH]cc(Cc2cccc3ncoc23)c1C | 100 nM | > 100000 nM | 220 nM | 13 nM | –
Cc1c(Cc2nc3ccccc3o2)c[nH]c1C(=O)NC1CC1 | 670 nM | > 100000 nM | 600 nM | – | –
Cc1c(C(=O)NC2CC2)[nH]c(Cl)c1Cc1ccc(C(F)(F)F)nc1 | 120 nM | > 100000 nM | 32 nM | 17 nM | –
CCOC(=O)c1[nH]cc(Cc2ccc(C(F)(F)F)c3ncoc23)c1C | 47 nM | > 100000 nM | 24 nM | 16 nM | –
Cc1c(Cc2ccc(C(F)(F)F)nc2F)c[nH]c1C(=O)NCC(F)(F)F | 79 nM | > 100000 nM | 20 nM | 53 nM | –
Cc1c(Cc2ccc(C(F)(F)F)nc2F)c[nH]c1C(=O)N1CC(F)(F)C1 | 16 nM | > 100000 nM | 2.6 nM | 12 nM | –
Cc1c(C2(c3ccc(C(F)(F)F)nc3)CC2)c[nH]c1C(=O)NC(C)c1cc(C(N)=O)[nH]n1 (racemic) | 260 nM | – | – | 180 nM | 3000 nM
Cc1cc(C(C)NC(=O)c2[nH]cc(C(C)c3ccc(C(F)(F)F)nc3)c2C)no1 (racemic) | 79 nM | > 100000 nM | 3 nM | 74 nM | –
Cc1c(Cc2ccc(C(F)(F)F)nc2)c[nH]c1C(=O)NC(C)c1cc(C(N)=O)[nH]n1 (racemic) | 650 nM | – | – | 430 nM | 51 nM
Cc1c(Cc2ccc(C(F)(F)F)nc2)c[nH]c1C(=O)NC(C)c1cn[nH]c1 (racemic) | 61 nM | – | – | 48 nM | 9 nM
Cc1c(Cc2ccc(C(F)(F)F)nc2)c[nH]c1C(=O)NC(C)c1cnn(C)c1 (racemic) | – | – | – | 62 nM | 5.5 nM
Cc1cc(C(C)NC(=O)c2[nH]cc(Cc3ccc(F)c4ccncc34)c2C)no1 (racemic) | 36 nM | > 100000 nM | 2.2 nM | 48 nM | –
Cc1c(Cc2ccc(C(F)(F)F)nc2)c[nH]c1C(=O)NC(C)c1nc[nH]n1 (racemic) | 260 nM | – | – | 120 nM | 160 nM
Cc1c(Cc2ccc(C(F)(F)F)nc2)c[nH]c1C(=O)NC(C)c1cc(Br)no1 (racemic) | 70 nM | > 100000 nM | 120 nM | 20 nM | –
Cc1c(Cc2ccc(C(F)(F)F)cc2)c[nH]c1C(=O)NC(C)c1cc(Br)no1 (racemic) | 380 nM | > 100000 nM | 260 nM | 39 nM | –
Cc1c(-c2n[nH]c3cc(C(F)(F)F)ccc23)c[nH]c1C(=O)NC(C)c1cc(C(N)=O)[nH]n1 (racemic) | 32000 nM | – | 500 nM | – | –
Cc1cc(C(C)NC(=O)c2[nH]cc(Cc3cccc4ccncc34)c2C)no1 (racemic) | 30 nM | > 100000 nM | 3.7 nM | 21 nM | –
Cc1cc(C(C)NC(=O)c2[nH]cc(Cc3ccc(C(F)(F)F)nc3)c2C)no1 (racemic) | – | – | – | 30 nM | 9 nM
Cc1nc(C(C)NC(=O)c2[nH]cc(Cc3ccc(C(F)(F)F)nc3)c2C)no1 (racemic) | 370 nM | > 100000 nM | 190 nM | 100 nM | –
Cc1c(Cc2ccc(C(F)(F)F)cc2Br)c[nH]c1C(=O)NC(C)c1nc[nH]n1 (racemic) | 950 nM | > 100000 nM | 990 nM | 260 nM | –

SMILES | IC50 [1] | IC50 [2] | EC50 (Plasmodium falciparum [3]) | IC50 [4] | EC50 (Plasmodium falciparum [5])
COC(c1ccc(C(F)(F)F)nc1)c1c[nH]c(C(=O)NC(C)c2cc(C)on2)c1C (racemic) | 150 nM | > 100000 nM | 40 nM | 100 nM | –
Cc1c(Cc2ccc(C(F)(F)F)nc2F)c[nH]c1C(=O)NC(C)c1nc[nH]n1 (racemic) | 990 nM | > 100000 nM | 580 nM | 730 nM | –
Cc1nc(C(C)NC(=O)c2[nH]cc(Cc3ccc(C(F)(F)F)nc3)c2C)n[nH]1 (racemic) | 680 nM | > 100000 nM | 380 nM | 320 nM | –
Cc1cc(C(C)NC(=O)c2[nH]cc(C(O)c3ccc(C(F)(F)F)nc3)c2C)no1 (racemic) | 180 nM | > 100000 nM | 22 nM | 130 nM | –
Cc1cc(C(C)NC(=O)c2[nH]cc(C(C#N)c3ccc(C(F)(F)F)nc3)c2C)no1 (racemic) | 270 nM | > 100000 nM | 21 nM | 410 nM | –
Cc1nc(C(C)NC(=O)c2[nH]cc(Cc3ccc(C(F)(F)F)nc3)c2C)c[nH]1 (racemic) | 13000 nM | > 100000 nM | 380 nM | 500 nM | –
Cc1[nH]c(C(=O)NC(C)c2nc[nH]n2)c(C)c1Cc1ccc(C(F)(F)F)nc1 (stereo in doubt; form 1) | 290 nM | – | – | 140 nM | 140 nM
Cc1cc(C(C)NC(=O)c2[nH]c(C)c(Cc3ccc(C(F)(F)F)nc3)c2C)no1 (stereo in doubt; form 1) | 65 nM | – | – | 30 nM | 12 nM
Cc1c(Cc2ccc(C(F)(F)F)nc2)c[nH]c1C(=O)NC(C)c1cc(C(N)=O)[nH]n1 (stereo in doubt; form 1) | 35000 nM | – | – | 230 nM | 24 nM
Cc1c(Cc2ccc(F)c3ccncc23)c[nH]c1C(=O)NC(C)c1nc[nH]n1 (stereo in doubt; form 1) | 44 nM | – | – | 29 nM | 9.5 nM
Cc1c(C2(c3cccc(C(F)(F)F)c3)CC2)c[nH]c1C(=O)NC(C)c1nc[nH]n1 (stereo in doubt; form 1) | 110 nM | – | – | 40 nM | 48 nM
Cc1c(Cc2ccc(C(F)(F)F)nc2)c[nH]c1C(=O)NC(C)c1nc[nH]n1 (stereo in doubt; form 1) | 250 nM | – | – | 110 nM | 66 nM
Cc1cc(C(C)NC(=O)c2[nH]cc(C3(c4ccc(C(F)(F)F)nc4)CC3)c2C)no1 (stereo in doubt; form 1) | 16 nM | – | – | 30 nM | 11 nM
Cc1c(C2(c3ccc(C(F)(F)F)c(F)c3)CC2)c[nH]c1C(=O)NC(C)c1nc[nH]n1 (stereo in doubt; form 1) | 110 nM | – | – | 61 nM | 29 nM
Cc1[nH]c(C(=O)NC(C)c2cn[nH]c2)c(C)c1Cc1ccc(C(F)(F)F)nc1 (stereo in doubt; form 1) | 87 nM | – | – | 88 nM | 6 nM
Cc1cc(C(C)NC(=O)c2[nH]cc(Cc3ccc(C(F)(F)F)cc3)c2C)no1 (stereo in doubt; form 1) | 46 nM | – | – | 13 nM | 170 nM
Cc1cc(C(C)NC(=O)c2[nH]cc(Cc3ccc(C(F)(F)F)nc3)c2C)n[nH]1 (stereo in doubt; form 1) | 100 nM | – | – | 69 nM | 20 nM
Cc1c(Cc2ccc(C(F)(F)F)cc2F)c[nH]c1C(=O)NC(C)c1nc[nH]n1 (stereo in doubt; form 1) | 35000 nM | – | – | 73 nM | 150 nM
Cc1c(Cc2ccc(C(F)(F)F)nc2)c[nH]c1C(=O)NC(C)c1cc(C#N)[nH]n1 (stereo in doubt; form 1) | 120 nM | – | – | 83 nM | 17 nM
[2H]C([2H])(c1ccc(C(F)(F)F)nc1)c1c[nH]c(C(=O)NC(C)c2cc(C)on2)c1C (stereo in doubt; form 1) | – | – | 4.7 nM | 9.1 nM | –
Cc1c(C(=O)NC(C)c2nc[nH]n2)[nH]c(Cl)c1Cc1ccc(C(F)(F)F)nc1 (stereo in doubt; form 2) | 200 nM | – | – | 63 nM | 40 nM
Cc1cc(C(C)NC(=O)c2[nH]c(C)c(Cc3ccc(C(F)(F)F)nc3)c2C#N)no1 (stereo in doubt; form 2) | 95 nM | – | – | 99 nM | 64 nM
Cc1cc(C(C)NC(=O)c2[nH]cc(-c3n[nH]c4cc(C(F)(F)F)ccc34)c2C)no1 (stereo in doubt; form 2) | 560 nM | – | – | 69 nM | 62 nM
Cc1[nH]c(C(=O)N[C@H](C)c2cn[nH]c2)c(C#N)c1Cc1ccc(C(F)(F)F)nc1 (stereo in doubt; form 2) | 660 nM | – | – | 440 nM | 170 nM
Cc1cc(C(C)NC(=O)c2[nH]cc(-c3c[nH]c4cc(C(F)(F)F)ccc34)c2C)no1 (stereo in doubt; form 2) | 660 nM | > 100000 nM | – | 58 nM | 85 nM
Cc1[nH]c(C(=O)NC(C)c2cnn(C)c2)c(C)c1Cc1ccc(C(F)(F)F)nc1 (stereo in doubt; form 2) | 88 nM | – | – | 76 nM | 17 nM
Cc1c(C(=O)NC(C)c2nc[nH]n2)[nH]c(Cl)c1Cc1ccc(C(F)(F)F)nc1 (stereo in doubt; form 4) | 290 nM | – | – | 100 nM | 130 nM
